Like-named read-outs stand apart in the source and are kept apart here.

For experiment [1], the system named is INS-1E cells. Kind of experiment: cells. The format is cell-based, rat.
The subject of experiment [2] is INS-1E cells. The format is cell-based, rat. To be noted: 0.1 mM glucose; for 0.1mMGluc_INS1E SecretionMod Act IC50/EC50: assay number 9; for insulin secretion at low glucose (in words): INS-1E.
In experiment [3] the test system is endothelial tube formation in co-cultures of ECFCs and ADSCs treated with VEGF. As to the kind of experiment: cells. The format is cell-based, human. To be noted: Homo sapiens, read-out: Anti-Angio IC50.
The subject of experiment [4] is nuclear β-catenin in C2C12 cells. As to the kind of experiment: cells. The class given is cell-based. To be noted: Mus musculus.
Experiment [5] has as its system tonic K+ channel activity in INS-1E cells. As to the kind of experiment: cells. The class given is cell-based, rat. To be noted: Rattus norvegicus, INS-1E, read-out: K+ channel assay IC50.
A further experiment deals with NCI-H716 cells. Kind of experiment: cells. The format is cell-based, Human.
In a further experiment the test system is HeLa cells. As to the kind of experiment: cells. To be noted: for EC50: Homo sapiens, read-out: CellCycle G2/M. The format is cell-based.
The test system of a further experiment is DLD-1. Kind of experiment: cells. The format is cell-based. To be noted: Homo sapiens, DLD-1, 72 h, read-out: DLD-1 viab. IC50.
A further experiment has as its system SW480. Kind of experiment: cells. The class given is cell-based. To be noted: Homo sapiens.
The next experiment has as its system HCT116. As to the kind of experiment: cells. The class given is cell-based. To be noted: Homo sapiens.
Experiment [6] relates to HCT116 cells treated with a GSK3β inhibitor. As to the kind of experiment: cells. To be noted: Homo sapiens. The format is cell-based.
Setting [7] is: Table 2, primary assay tube area, 20 = no response in concentration-response, 20.1 = inactive in single concentration testing.
Where [8] appears, read: C2C12, Table 2, C2C12, […], 20 / 20.1 coded, read-out: Wnt pot. EC50.
[9] abbreviates: Rattus norvegicus, INS-1E; read-out: Ins. sec. EC50.
[10] abbreviates: Rattus norvegicus, INS-1E; read-out: Insulin Secretion.
[11] abbreviates: Table 2, 72 h, Cell TiterGlo, non-adherent, 20 coded.
[12] abbreviates: SW480, 72 h, Table 2, 72 h, Cell TiterGlo, non-adherent, 20 coded, read-out: SW480 viab. IC50.
[13] abbreviates: SW480, basal, SW480, read-out: Basal_Viability ATP SW480.
Setting [14] is: HCT-116, 72 h, read-out: HCT-116 viab. IC50, Table 2, basal, 72 h, Cell TiterGlo, non-adherent, 20 coded.
[15] abbreviates: HCT-116, read-out: HCT-116 (GSK3β) viab. IC50, Table 2, GSK3β inhibitor LY2090314 20 nM, 72 h, Cell TiterGlo, 20 coded.
[16] abbreviates: Rattus norvegicus; INS-1E, 5 mM glucose; read-out: insulin secretion EC50.
The mark [17] stands for this setting: Homo sapiens, NCI-H716; read-out: GLP1 sec. EC50.
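Wherever 5mMGluc INS1E SecretionMod IC50/EC50 is given: secreted insulin quantified by homogeneous immunoassay.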

With `CC(C)(C)c1nnc(NS(=O)(=O)c2ccccc2)s1` [NCGC00182991-01], the “5mMGluc_INS1E SecretionMod IC50/EC50” value in the experiment with INS-1E cells [1] (assay number 8; 5 mM glucose) was 13.1318 µM. For the same compound, the “0.1mMGluc_INS1E SecretionMod Act IC50/EC50” value in the experiment with INS-1E cells [2] is on record as over 33.33 µM.

Take `Oc1ccc(CCNCCCCCCNCCc2ccccc2)cc1O` [NCGC00184998-02]: the “5mMGluc_INS1E SecretionMod IC50/EC50” value with INS-1E cells [1] (assay number 8; 5 mM glucose) is listed as over 33.33 µM. In the experiment on INS-1E cells [2], the “0.1mMGluc_INS1E SecretionMod Act IC50/EC50” value is reported as over 33.33 µM.

With `Cl.Nc1c2c(nc3c1CCC3)CCCC2.O` [NCGC00263455-01], the “5mMGluc_INS1E SecretionMod IC50/EC50” value in the experiment with INS-1E cells [1] (assay number 8; 5 mM glucose) was 11.7012 µM. The “0.1mMGluc_INS1E SecretionMod Act IC50/EC50” value with INS-1E cells [2] is over 33.33 µM.

Take `Cc1cc2c(OCC(CNC(C)(C)C)OC(=O)c3ccccc3)cccc2[nH]1` (centres unmarked) [NCGC00263654-01]: the “5mMGluc_INS1E SecretionMod IC50/EC50” value in the experiment on INS-1E cells [1] (assay number 8; 5 mM glucose) is 14.6026 µM. For the same compound, in the experiment with INS-1E cells [2], the “0.1mMGluc_INS1E SecretionMod Act IC50/EC50” value is recorded as over 33.33 µM.

With `CN(C)CCC=C1c2ccccc2CCc2ccccc21` [amitriptyline, reference compound], the IC50 in [3] was over 10 µM; in experiment [5], 6.2 µM; in the experiment with DLD-1, over 20 µM; in the experiment with SW480 (SW480, 72 h, read-out: SW480 viab. IC50), 10.1 µM; in the experiment on SW480 (SW480, read-out: Basal_Viability ATP SW480) it was 10.1 µM; in the experiment on HCT116 (HCT-116, 72 h, read-out: HCT-116 viab. IC50), over 20 µM. Further, the IC50 in [6] (HCT-116, 72 h, read-out: HCT-116 (GSK3β) viab. IC50) is over 20 µM. The EC50 in experiment [4] (C2C12, read-out: Wnt pot. EC50) was over 10 µM; with INS-1E cells [1] (Rattus norvegicus, INS-1E, read-out: Ins. sec. EC50) it was 3 µM; with INS-1E cells [1] (Rattus norvegicus, INS-1E, read-out: Insulin Secretion) it was 3 µM; in the experiment on NCI-H716 cells (Homo sapiens, NCI-H716, read-out: GLP1 sec. EC50), over 10 µM; in the experiment on HeLa cells (HeLa), over 10 µM.

Take `CCN(CC)CCOc1ccccc1C(=O)CCc1ccccc1` [etafenone, reference compound]: the IC50 in [3] (setting [7]) was over 10 µM; in experiment [5] (0.1 mM glucose, thallium flux), 6.7 µM; in the experiment with DLD-1 (setting [11]) it was over 20 µM; in the experiment with SW480 (setting [12]) it was 16.9 µM; with SW480 (setting [13]) it was 16.9 µM; in the experiment with HCT116 (setting [14]) it was 11.2 µM. Also, the IC50 in the experiment on HCT116 (HCT-116, basal, HCT116, read-out: Basal_Viability ATP HCT116) is 11.2 µM; in experiment [6] (setting [15]), over 20 µM. The EC50 in experiment [4] (setting [8]) is over 10 µM; with INS-1E cells [1] (setting [9]), 3.9 µM; in the experiment on INS-1E cells [1] (setting [10]), 3.89 µM; in the experiment with HeLa cells (HeLa, S2 Table, HeLa, 20 = no response at highest concentration), over 10 µM. The “G2/M IC50 / EC50” value with HeLa cells is 20 (values shown as 20 indicate that the compound was tested in concentration-response and showed no response at the highest concentration tested (e.g. IC50 > 20 μM)).

With `COc1ccc(Cl)cc1C(=O)NCCc1ccc(S(=O)(=O)NC(=O)NC2CCCCC2)cc1` [glibenclamide, reference compound], the IC50 was over 10 µM in [3] (setting [7]); over 20 µM in the experiment on DLD-1 (setting [11]); 2.9 µM in the experiment on SW480 (setting [12]); 2.92 µM in the experiment on SW480 (setting [13]); over 20 µM in the experiment on HCT116 (setting [14]); over 20 µM in experiment [6] (setting [15]). Besides, the EC50 was over 10 µM in [4] (setting [8]); 0.002 µM in the experiment on INS-1E cells [1] (setting [9]); 0.00247 µM in the experiment with INS-1E cells [1] (setting [10]); 0.0025 µM with INS-1E cells [1] (setting [16]); over 10 µM with NCI-H716 cells (setting [17]). Besides, in the experiment on INS-1E cells [2], the “insulin secretion at low glucose (in words)” value is listed as “stimulated insulin secretion at low glucose concentrations”.

Regarding `CCOc1cc(CC(=O)N[C@@H](CC(C)C)c2ccccc2N2CCCCC2)ccc1C(=O)O` [repaglinide, reference compound], the IC50 in [3] (setting [7]) is over 10 µM; in the experiment on DLD-1 (setting [11]) it was over 20 µM; with SW480 (setting [12]), over 20 µM; in the experiment on HCT116 (setting [14]), over 20 µM; in [6] (setting [15]), over 20 µM. Moreover, the EC50 was over 10 µM in experiment [4] (setting [8]), 0.03 µM in the experiment with INS-1E cells [1] (setting [9]), 0.027 µM in the experiment on INS-1E cells [1] (setting [16]) and over 10 µM with NCI-H716 cells (setting [17]). Also, the “insulin secretion at low glucose (in words)” value with INS-1E cells [2] is given as “stimulated insulin secretion at low glucose concentrations”. For the same compound, the “G2/M IC50 / EC50” value with HeLa cells (Table 2, HeLa, […], 20 / 20.1 coded) is recorded as 20.1.

For the origin of these results see publication PMC4503722, “Novel Phenotypic Outcomes Identified for a Public Collection of Approved Drugs from a Publicly Accessible Panel of Assays” (PLoS ONE, 2015).
